Experimental findings from US20160368919A1, “NOVEL PYRIDINE PYRAZINONES AS BET-FAMILY BROMODOMAIN INHIBITORS” (Pfizer Inc., priority 2015, published 2016) are described below.

Entries after “also recorded” stand apart in the source; their conditions may differ.

One experiment deals with C4-2AR-WT cells, AR(+). Kind of experiment: CRPC cell proliferation assay (CellTiter-Glo), C4-2AR-WT. It is filed as cell-based. As to conditions: CTG at 96h. The procedure:
(§1) Castrate-Resistant Prostate Cancer (CRPC) Cell Proliferation Assay • Cells were seeded into 96-well plates at 2,000-10,000 cells/well in 100 uL medium. Four AR(+) cell lines (LnCaP, C4-2 (parental), C4-2AR-WT and C4-2AR—F876L) and one AR(−) cell line (DU-145) were studied. Compound treated cells were analyzed for cell density at 96h, using CellTiter-Glo® (CTG) reagent (Promega).

In another experiment the target is T1, BRD4 BD1 (Homo sapiens, UniProt O60885).
T1 construct: His-tagged BRD4 BD1 (44-160); made in house
Kind of experiment: BRD4 BD1 Fluorescence Polarization (FP) competition binding assay. To be noted: BRD4 BD1 40 nM, probe PFI-411FP 2 nM. In short, it runs like this:
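BRD4 BD1 (40 nM) preincubated 15 min at 20° C. with compound (120 to 0.0012 μM) in HEPES pH 7.4 with 0.08% BSA, then 2 nM PFI-411FP tracer added for 60 min. Fluorescence polarization read (ex 620/em 688 nm); IC50 from four-parameter fit, converted to Ki via Nikolovska-Coleska equation.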

Experiment [1] has as its system MYC, SOX2, involucrin and Keratin 14 expression in HCC2429 cells. Kind of experiment: Biomarker analysis in HCC2429 cells (RT-PCR, Western blot). Type of experiment: cell-based. The procedure:
HCC2429 cells were plated into a 6-well plate (250,000 cells/well). Cells were treated with compounds or control vehicle (DMSO) at the indicated concentrations for 72 hrs. Cells were collected, washed in PBS, and split for western blot and RNA analysis.

Experiment [2] concerns c-MYC and MYB expression in MM1.S cells. The experiment in a line: Biomarker analysis in MM1.S cells (RT-PCR, Western blot). Type of experiment: cell-based. The procedure:
MM1.S cells (1,000,000 cells) were seeded in […] in 10 mL medium. On the following day cells were treated with indicated compounds for 0, 2, 4, 6, 8, 16, and 24 hours. Cells were collected, washed in PBS, and split for western blot and RNA analysis. For western blot, cells were lysed in RIPA buffer and 30 ug protein was loaded on a 4-12% bis-tris gel under denaturing conditions and transferred to nitrocellulose. Blots were probed with primary antibodies for c-MYC (Cell Signaling #9402) and GAPDH (Cell Signaling #2118) diluted at 1:1000 and then secondary antibodies anti-mouse 680 (LiCor) and anti-rabbit 800 (Licor) and imaged on a LiCor reader. For gene expression analysis, total RNA was prepared using Qiagen total RNA kit (Qiagen) and cDNA was prepared from 100 ng RNA (high capacity cDNA kit; Applied Biosystems). Relative gene expression was analyzed on an Applied Biosystem 7900 qPCR thermocycler using gene expression assays for MYC (Hs00153408_m1), MYB (Hs00920556_m1), and GAPDH (Hs02758991_g1). Relative gene expression is calculated relative to DMSO and normalized to GAPDH expression.

Another experiment has as its system LnCaP cells, AR(+). Kind of experiment: CRPC cell proliferation assay (CellTiter-Glo), LnCaP. To be noted: CTG at 96h. Type of experiment: cell-based. The procedure: as §1
For another experiment, the system named is DU-145 cells, AR(−). The experiment in a line: CRPC cell proliferation assay (CellTiter-Glo), DU-145. It is filed as cell-based. As to conditions: CTG at 96h. The procedure:
as §1

The next experiment has as its system MM1.S cells. The experiment in a line: MM1.S cell proliferation assay (CellTiter-Glo). It is filed as cell-based. The procedure: MM1.S (dexamethasone sensitive) and OPM-2 cells were purchased from ATCC and maintained in RPMI-1640 medium with 10% fetal bovine serum at 37 degrees, 5% CO2. Cells were seeded at 10,000 cells/well in 100 uL medium. The following day compounds or control vehicle (DMSO) were added at indicated concentrations in 10 ul volume. Compound treated OPM-2 cells and MM1.S cell were analyzed for cell density at 72h and 96h, respectively, using CellTiter-Glo® (CTG) reagent (Promega). The CTG assay measures the amount of ATP present, which indicates the number of viable cells in culture.

A further experiment deals with HCC2429 cells. Kind of experiment: NMC HCC2429 cell proliferation assay (CellTiter-Glo). It is filed as cell-based. To be noted: Homo sapiens; HCC2429, CTG at 96h. The procedure:
NMC HCC2429 Cell Proliferation Assay • HCC2429 cells were plated into a 96-well plate (10,000 cells/well). Compounds or control vehicle (DMSO) were added at indicated concentrations. Compound-treated HCC2429 cells were analyzed for cell density at 96h using CellTiter-Glo® (CTG) reagent (Promega).

Setting [3] is: HCC2429, Western blot, 72 hrs, concentration-dependent.
Setting [4] is: 0.5 uM, RT-PCR time-course 2 to 24 hours.

In the case of `CCC(=O)N(C)c1ccc2nc(NCCC(=O)O)c(=O)n([C@@H](CC)c3ccccc3)c2n1` [Example 10, N-{6-[methyl(propanoyl)amino]-3-oxo-4-[(1S)-1-phenylpropyl]-3,4-dihydropyrido[2,3-b]pyrazin-2-yl}-beta-alanine], the IC50 in the experiment on C4-2AR-WT cells, AR(+) turned out to be 500 nM; on BRD4 BD1 it was 62.2 nM; with LnCaP cells, AR(+) (Homo sapiens), 320 nM; in the experiment on DU-145 cells, AR(−) (Homo sapiens), 1880 nM; with MM1.S cells (Homo sapiens, MM1.S, CTG at 96h), 2 nM; in the experiment with HCC2429 cells, 47 nM. Besides, the “Max % Inh” value amounted to 85% in the experiment with C4-2AR-WT cells, AR(+); 69% in the experiment with LnCaP cells, AR(+); 55% in the experiment on DU-145 cells, AR(−). The “mRNA expression of involucrin” value in experiment [1] (HCC2429, RT-PCR, 72 hours, 50 nM, 200 nM and 500 nM, dose dependent) is “increased”. In experiment [1] (setting [3]), the MYC protein level entry is “down-regulated”. In addition, the SOX2 protein level entry in experiment [1] (setting [3]) was “down-regulated”. For the same molecule, the “expression of c-MYC mRNA relative to GAPDH” value in experiment [2] (setting [4]) is “strongly down-regulated; also recorded: down-regulated”. For the same molecule, the “relative expression of MYB mRNA” value in experiment [2] (setting [4]) was “down-regulated”. In addition, the “relative expression of c-MYC protein” value in experiment [2] (Western blot, 2, 4, 6, 8, 16 and 24 hours) is “down-regulated”. Also, the “inhibition of proliferation of MM1.S cells” value in the experiment on MM1.S cells (dose dependent manner, FIG. 1.A) is recorded as “inhibited proliferation”.
